One compound from patent US20150210755A1, “ANTI-POLY-N-ACETYL GLUCOSAMINE (PNAG) MONOCLONAL ANTIBODY AND USES THEREOF FOR THE PREVENTION OR TREATMENT OF PNAG EXPRESSING BACTERIAL INFECTION” (SANOFI, priority 2012, published 2015) can be followed below.

The subject of the test is methicillin sensitive S. aureus (strain MN8). The test can be described thus: Murine lethal septicemia model in immuno-competent mice. It counts as in vivo. As to conditions: Vancomycin 30 mg/kg. Here is the method:
Differences in viable bacterial counts between control and drug-treated groups were analyzed by 1-way ANOVA followed by Dunnett's adjustment for multiplicity. For lethal septicemia, differences in survival between control and drug-treated groups were performed using a Log Rank test followed by a Bonferroni-Holm's adjustment for multiplicity

Structures are written as SMILES.

For the compound `CN[C@H](CC(C)C)C(=O)N[C@H]1C(=O)N[C@@H](CC(N)=O)C(=O)N[C@H]2C(=O)N[C@H]3C(=O)N[C@H](C(=O)N[C@H](C(=O)O)c4cc(O)cc(O)c4-c4cc3ccc4O)[C@H](O)c3ccc(c(Cl)c3)Oc3cc2cc(c3O[C@@H]2O[C@H](CO)[C@@H](O)[C@H](O)[C@H]2O[C@H]2C[C@](C)(N)[C@H](O)[C@H](C)O2)Oc2ccc(cc2Cl)[C@H]1O` [Vancomycin], the “% Survival (96 h post-infection)” value came to 100%.
